A short description of this data set: Phase 1 plasma pharmacokinetics after single and multiple oral doses. The format is in vivo, human. Conditions: for AUC(0-t) / half-life / Tmax: human, plasma, oral; for AUC(0-t): plasma AUC0–12 h.

This is an account of results in publication PMC5975062 (Alzheimer's & Dementia : Translational Research & Clinical …, 2015).

SMILES strings stand for the structures.

As a reminder, the AUC(0-t) is the area under the concentration-time curve up to a stated or last time point. Low readings indicate less exposure, high ones more exposure. The term half-life denotes how long it takes for the measured level to halve. Broadly, the Tmax is the time at which the peak concentration occurs. Regarding `CCCOc1ccc([C@H]2CNC(=O)N2c2ccc3[nH]cnc3c2)cc1` [PQ912], the AUC(0-t) reads like this: (100 mg, 100 mg bid solution, fed, nonelderly, day 11, geo mean (CV%)) 969 ng·h/mL; (200 mg, 200 mg bid capsule, fasted, elderly, day 7, geo mean (CV%)) 3890 ng·h/mL; (500 mg, 500 mg bid capsule, fed, nonelderly, day 11, geo mean (CV%)) 9300 ng·h/mL. The half-life is, setting by setting: (100 mg, plasma t1/2 (apparent terminal), 100 mg bid solution, fed, nonelderly, day 11, geo mean (CV%)) 3.46 h; (100 mg, plasma t1/2,eff (2–12 h postdose), 100 mg bid solution, fed, nonelderly, day 11, geo mean (CV%)) 2.44 h; (200 mg, plasma t1/2 (apparent terminal), 200 mg bid capsule, fasted, elderly, day 7, geo mean (CV%)) 7.55 h; (200 mg, plasma t1/2,eff (2–12 h postdose), 200 mg bid capsule, fasted, elderly, day 7, geo mean (CV%)) 3.08 h; (500 mg, plasma t1/2 (apparent terminal), 500 mg bid capsule, fed, nonelderly, day 11, geo mean (CV%)) 6.82 h; (500 mg, plasma t1/2,eff (2–12 h postdose), 500 mg bid capsule, fed, nonelderly, day 11, geo mean (CV%)) 3.01 h. Further, the half-life reads like this: (plasma t1/2,eff, after bid doses) 2 to 3 h; (terminal plasma t1/2, single doses, across dose range) 2 to 8 h. Moreover, the Tmax is 0.75 h (100 mg, plasma tmax, 100 mg bid solution, fed, nonelderly, day 11, median (min–max)); 1 h (200 mg, plasma tmax, 200 mg bid capsule, fasted, elderly, day 7, median (min–max)); 3 h (500 mg, plasma tmax, 500 mg bid capsule, fed, nonelderly, day 11, median (min–max)); 0.5 h (mean plasma tmax, single 10–400 mg solution, fasted); 0.5 to 1.5 h (plasma tmax, generally observed, all formulations and doses); 0.5 to 1 h (plasma tmax, repeated dosing, compared with CSF). The same compound registered a time to steady-state (multiple bid dosing, morning trough plasma concentrations) of at most 2 days. In addition, for the setting “repeated bid dosing ≥50 mg, steady state”, the “plasma trough (12 hours postdose) lower than peak levels” value was “up to 61 fold”. For the setting “single doses 200–1800 mg”, the “increase in AUC with ninefold increase in dose” value amounted to 24 fold.
